Reference: patent US5260275A, “Hypoglycemics” (Amylin Pharmaceuticals, Inc., priority 1990, dated 1993)
No end group written: not given here.

How the values were obtained:
HIT T-15 cells [1] = test: Amylin release from HIT T-15 cells; type: cell-based, hamster; conditions: for Effect on basal and glucose-stimulated amylin secretion (in words): same concentrations that stimulate insulin secretion (tolbutamide 100 μM; glibenclamide 0.1 and 1.0 μM), 0 and 10 mM glucose
Protocol: (§1) HIT T-15 cells (HIT cells; American Type Tissue Collection, Rockville, MD; R. F. Santerre, et al. (1981) Proc. Nat. Acad. Sci. USA 78, 4339-4343.) were subcultured weekly in Ham's F-12 medium (Irvine Scientific, Santa Ana, Calif.) containing 10% horse serum (Gemini Bioproducts, Calabasas, Calif.), 2.5% fetal bovine serum (FBS; Gemini), 2 mM L-glutamine, and 10.0 mM glucose. Cells were maintained at 37° C. and 5% CO2 / 95% humidified air and medium was replaced every 2 to 3 days. All experiments were performed with cells from passages 66 to 71.
(§2) Amylin and insulin secretion were measured using reagents of analytical grade unless otherwise indicated. The secretion medium was a Krebs-Ringer buffer (KRB) containing 119 mM NaCl, 4.74 mM KCl, 2,54 mM CaCl2, 1.19 mM MgSO4, 1.19 mM KH2 PO4, 25 mM NaHCO3, 10 mM HEPES and 0.1% protease-free bovine serum albumin (Cohn fraction V; Sigma Chemical Co., St. Louis Mo.) at pH 7.4. Glibenclamide (Sigma) was initially dissolved in ethanol (50 mg/ml) then diluted to working concentrations in KRB. […] Tolbutamide (Sigma) was initially dissolved in dimethylsulfoxide (50 mg/ml). […] Metformin (Sigma) was diluted in KRB.
(§3) Five days before each secretion study cells were subcultured at 0.26×10^6 cells/0.8 ml medium/well in 24-well tissue culture plates (Corning Glass Works, Corning N.Y.). Medium was replaced on day 3. On day 5 cells were washed twice with 1.0 ml KRB then incubated in 1.0 ml KRB (30 minutes, 37° C.) in equilibrium with air. Cells were washed twice more prior to addition of 0.5 ml KRB containing the indicated concentrations of glucose, metformin, tolbutamide and glibenclamide. After a 60 minute incubation with test substance or substances, supernatants were centrifuged (5 minutes, 500×g, 5° C.; GPKR centrifuge, Beckman Instruments, Inc., Palo Alto, Calif.) to remove cell debris, then stored in polypropylene micro test tubes (Brinkman Instrument Co., Westbury, N.Y.) at -20° C. until analyzed by radioimmunoassay. Supernatants were analyzed for insulin and amylin content within one week of collection. Three wells per plate were randomly selected for cell quantitation. Cells were incubated with 75 μg trypsin and 30 μg EDTA in 150 μl normal saline (8 minutes, 37° C.), then counted on a Coulter Counter (Model Zf, Coulter Electronics, Hialeah, Fla.).
(§4) Immunoreactive insulin content in supernatants was measured using a commercial radioimmunoassay (IM.78; Amersham, Arlington Heights, Ill.). […] The radioimmunoassay for immunoreactive amylin was as follows. Assay diluent was phosphate-buffered saline (PBS; 137 mM NaCl, 2.68 mM KCl, 1.47 mM KH2 PO4, 6.65 mM Na2 HPO4) containing 0.1% Triton-X 100 (v/v), 0.01% NaN3 (w/v), and 0.1% gelatin (v/v; teleostean, 45% aqueous solution, Sigma) at pH 7.4. All incubations were performed at 4° C. ^125 I-[Tyr 37]-human synthetic amylin tracer was iodinated by the chloramine-T method and purified on a C18 Sep-Pak (Waters Associates, Milford, Mass.). Specific activity was approximately 500 μCi/μg.
Standards and unknowns were run in triplicate or duplicate respectively. After an 18 hour incubation, 100 μl of tracer containing 20,000 dpm was added and samples were incubated an additional 18 hours. To ensure complete immunoprecipitation of amylin:antibody complexes, 100 μl of rabbit gamma globulin (0.35 mg/ml, Scantibodies Laboratory, Santee, Calif.) and 100 μl of goat anti-rabbit gamma globulin (0.50 mg/ml, purified grade; Scantibodies) were added. After a 15 minute incubation, 1.0 ml 2% polyethylene glycol (w/v. MW 8,000; Sigma) in assay buffer was added and samples were centrifuged (30 minutes, 1500×g, 5° C.). Samples were decanted and pellets were counted on a gamma counter (model 1277; LKB Wallac, Turku, Finland).
Data in FIGS. 3 and 4 are shown as the mean±S.D. of 4 replicate samples.

HIT T-15 cells [2] = test: Insulin release from HIT T-15 cells; type: cell-based, hamster
Protocol: as §1, §2, §3, §4
Data in FIGS. 3 and 4 are shown as the mean±S.D. of 4 replicate samples. An unpaired Student's t-test was used to compare secretion in the absence and presence of hypoglycemic agent (Statview 512+ program; Brain Power, Inc., Calabasas, Calif.).
HIT T-15 cells (HIT cells; American Type Tissue Collection, Rockville, Md.) were subcultured weekly in Ham's F-12 medium (Irvine Scientific, Santa Ana, Calif.) containing 10% horse serum (Gemini Bioproducts, Calabasas, Calif.), 2.5% fetal bovine serum (FBS; Gemini), 2 mM L-glutamine, 10^5 IU penicillin G/1, 100 mg streptomycin/1 and 10.0 mM glucose. Cells were maintained at 37° C. and 5% C02/ 95% humidified air and medium was replaced every 2 to 3 days. All experiments were performed with cells from passages 62 to 71.

[3] = system: amylin inhibition of insulin-stimulated muscle glycogen synthesis; test: Antagonist assay in isolated rat soleus muscle (radiolabelled glucose into glycogen, Example 6); type: cell-based; conditions: 1000 μU/mL insulin
Protocol: An antagonist assay was performed in vitro using the isolated soleus muscle from rats. It measured the rate of incorporation of radiolabelled glucose into muscle glycogen as follows: […] There were therefore 9 treatment groups (conditions 1,2,3 and six subgroups of condition 4). The right and left soleus muscles of 4-hour fasted rats were removed immediately after decapitation of the animals, divided in half and temporarily placed in physiological saline. Muscles were assigned to different treatment groups so that the 4 muscle pieces from each animal were evenly distributed among the 9 flasks representing the different assay conditions. […] Pharmacologically active agents were added to the 10mL of medium to result in the above stated concentrations and mixtures. […] Frozen muscle specimens were digested in 1 mL 60% potassium hydroxide at 70° C. for 45 minutes. […] The supernatant was aspirated and the glycogen washed with ethanol, aspirated and dried under vacuum. The remaining glycogen was redissolved in water and scintillation fluid and counted for ^14 C. From a knowledge of the specific activity of ^14 C-glucose in the 5.5 mM glucose of the incubation medium, and the total ^14 C counts remaining in the glycogen extracted from each muscle, the net rate of glycogen synthesis over the final 60 minute incubation period was determined. This was normalized per mass of muscle and expressed as μmoles of glucosyl units incorporated into glycogen per hour per gram of muscle. The antagonist dose/response curve was fitted to a 4-parameter logistic model using a least-squares iterative routine (ALLFIT, v2.7, NIH, MD) to derive the EC50 for disinhibition.

[4] = system: isolated rat islets of Langerhans; test: Glucose-stimulated insulin secretion from isolated rat islets of Langerhans; type: cell-based; conditions: glucose 10 mmol/L
Protocol: The following experiments illustrate the fact that subpeptides of amylin can act to reduce the amount of insulin produced by isolated islets of Langerhans in response to a standard glucose challenge. Similar results have been obtained using whole amylin. All experiments were performed by known methods used in experimental practice. See, e.g., Lacey P. E., and Kostianovsky M., Method for the Isolation of Intact Islets of Lanaerhans from the Rat Pancreas. Diabetes 1967; 16:35-39.
Briefly, rats were killed, and islets of Langerhans were isolated from their pancreases. Experiments were performed either with freshly isolated islets or after overnight incubation of islets (23 h) in standard culture medium and conditions at 37° C. Synthetic amylin peptide 27-37 or synthetic calcitonin gene related peptide (CGRP) was dissolved in a 1.0 mmol/L citric acid/sodium citrate buffer, pH 3.0, and the concentration of the amylin 27-37 was verified by quantitative amino acid analysis. See, e.g., Cooper G. J. S. et al., Proc Natl Acad Sci USA 1987; 84:8628-8632. […] Stimulation of islets was carried out at the standard stimulatory glucose concentration of 10 mmol/L.
Production of insulin is expressed as μU/islet/h. All experiments were performed with five replicates per point. The integrity of the islet response was assessed by comparing the responses after stimulation of different aliquots of islets by two and ten mmol/L glucose, respectively, and the strength of the inhibitory response was judged against that induced by 1 μg/ml (650 nmol/L) somatostatin. Somatostatin is a 14 amino acid peptide which is a known, potent inhibitor of the insulin secretory response of islet B-cells to glucose. Arimura A. Biomed res1981; 2:233-257. […] Petterson M., Ahren B., Bottcher G., Sundler F., Endocrinology 1986; 119:865-869.
The results are shown in TABLE 5 below and all results are expressed as standard error of the mean (s.e.m.). The significance of differences between the means of groups is assessed by the t-test. The result of stimulation by 10 mmol/L glucose is compared with the results of stimulation at 2 mmol/L glucose. In all other experimental conditions, the significance of the inhibitory effect is measured against the effect of 10 mmol/L glucose alone.

[5] = Intravenous amylin bolus in normal rats; type: in vivo, rat
Protocol: We have also shown that amylin acutely produces diabetes (fasting hyperglycemia greater than 140 mg/dL) when administered intravenously. Eight normal rats were injected with a 100 μg bolus of amylin (rat amylin, Bachem, Torrance, Calif.). An intravenous amylin bolus produced a profound hyperglycemia to diabetic levels within 15-30 minutes (usually around 200 mg/dL). This hyperglycemia persists for several hours. […] There is an increase in respiratory quotient (RQ) after amylin only when somatostatin is absent and insulin is allowed to increase in response to hyperglycemia. During somatostatin infusion (no endogenous insulin release), there is no change in RQ, indicating no change from lipid to carbohydrate fuel usage in response to amylin in the fasted animal.

[6] = 100 μg intravenous bolus, normal rats

For `COc1ccc(Cl)cc1C(=O)NCCc1ccc(S(=O)(=O)NC(=O)NC2CCCCC2)cc1` [glibenclamide], the “Proportional increase in basal amylin secretion” value (HIT T-15 cells [1]; basal conditions (0 glucose)) was “approximately two-fold”, the “Effect on basal and glucose-stimulated amylin secretion (in words)” value (HIT T-15 cells [1]) was “significantly increase” and the “Proportional increase of basal insulin release” value (HIT T-15 cells [2]; 0 glucose) was “more than two-fold”. For the same compound, the “Effect on basal and glucose-stimulated secretion of insulin (in words)” value (HIT T-15 cells [2]; 0.1 and 1.0 μM, 0 and 10 mM glucose, 60 min) was “significantly enhanced”.

With `CN(C)C(=N)N=C(N)N` [metformin] the “Effect on rates of amylin secretion (in words)” value (HIT T-15 cells [1]; islet β-cells (HIT), concentration range examined) was “does not influence” and the “Effect on insulin secretion (in words)” value (HIT T-15 cells [2]; 10 and 100 μM, 0 and 10 mM glucose, 60 min) was “no measurable effect”.

With `CCCCNC(=O)NS(=O)(=O)c1ccc(C)cc1` [tolbutamide] the “Effect on basal and glucose-stimulated amylin secretion (in words)” value (HIT T-15 cells [1]) was “significantly increase” and the “Effect on basal and glucose-stimulated secretion of insulin (in words)” value (HIT T-15 cells [2]; 100 μM, 0 and 10 mM glucose, 60 min) was “significantly enhanced”.

For “CGRP8-37: 8-37 human CGRP (Bachem), amylin antagonist”, the “Effect on amylin inhibition of insulin-stimulated muscle glycogen synthesis (in words)” value ([3]; 20 nM amylin) was “partly reverses”, the “Increment in the rate of glycogen synthesis, maximum reached” value ([3]; 20 nM amylin, antagonist 1 nM-10 μM) was “about 115 % of basal” and the EC50 ([3]; 20 nM amylin, read-out: EC50 for disinhibition (half maximal concentration)) was 1.2 nM.

In the case of “CGRP 27-37: subpeptide 27-37 of calcitonin gene related peptide (FVPTNVGSKAF; ends and bridges not checked; UniProt P06881 109-119, looked up, fragment)”, the Insulin production ([4]; substance 10 nmol/L) is reported as 36 μU/islet/hr, the “Relative insulin secretion inhibition (percentage by which insulin production is reduced from control)” value ([4]; substance 10 nmol/L) is reported as 55% and the Insulin production ([4]; substance 100 nmol/L) is reported as 36 μU/islet/hr. For the same compound, the “Relative insulin secretion inhibition (percentage by which insulin production is reduced from control)” value ([4]; substance 100 nmol/L) was 55%, the Insulin production ([4]; substance 1000 nmol/L) was 46 μU/islet/hr and the “Relative insulin secretion inhibition (percentage by which insulin production is reduced from control)” value ([4]; substance 1000 nmol/L) was 42%.

For “insulin: Humulin-R, 100U/mL, recombinant human insulin (Eli Lilly)”, the “Increase in rate of glycogen synthesis” value ([3]; zero amylin, zero antagonist) was 3.7 fold.

With “rat amylin: rat amylin, Bachem, Torrance, Calif. (KCNTATCATQRLANFLVRSSNNLGPVLPPTNVGSNTY; ends and bridges not checked; cysteine pairing not given here; UniProt P12969 38-74, looked up)” the “Decrease of insulin-stimulated rate of glycogen synthesis” value ([3]; 20 nM amylin) was “approximately 83%”, the Duration of hyperglycemia [5, 6] was “several hours” and the “Hepatic (endogenous) glucose output” value [5, 6] was “increase”. For the same compound, the “Hyperglycemia level after bolus” value [5, 6] was “around 200 mg/dL”, the Peripheral glucose disposal [5, 6] was “increased impediment” and the Plasma lactate [5, 6] was “transient increase”. For the same compound, the “Time to hyperglycemia at diabetic levels” value [5, 6] was 15 to 30 min, the “Respiratory quotient (RQ)” value ([5]; during somatostatin infusion (no endogenous insulin release)) was “no change” and the “Respiratory quotient (RQ)” value ([5]; somatostatin absent, insulin allowed to increase) was “increase”.
